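Growth conditions: 96-well plates. Treatment: test compound, 48 hours, 5 concentrations. Analysis: linear interpolation between bracketing concentrations; unreached endpoints set to highest concentration. Abbreviation: GI50, concentration required for 50% inhibition of growth.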 Activity calls are given as the source filed them. No stated cut-off is given here; in the data, active = GI50 up to about 1.1 µM and inactive = higher.
Legend:
Assay in all cases: NCI-60 cell line screen, 48 h
[1] = test system: A498
[2] = test system: SK-OV-3
[3] = test system: NCI-H226
[4] = test system: SF-295
[5] = test system: LOX IMVI
[6] = test system: UO-31
[7] = test system: COLO 205
[8] = test system: KM12
[9] = test system: OVCAR-4
[10] = test system: SNB-19
[11] = test system: HOP-62
[12] = test system: SN12C
[13] = test system: HCT-116
[14] = test system: HL-60
[15] = test system: HT-29
[16] = test system: SK-MEL-2
[17] = test system: KM-20L2
[18] = test system: CCRF-CEM
[19] = test system: Hs-578T
[20] = test system: PC-3

Row | Compound | GI50 [1] | GI50 [2] | GI50 [3] | GI50 [4] | GI50 [5] | GI50 [6] | GI50 [7] | GI50 [8] | GI50 [9] | GI50 [10] | GI50 [11] | GI50 [12] | GI50 [13] | GI50 [14] | GI50 [15] | GI50 [16] | GI50 [17] | GI50 [18] | GI50 [19] | GI50 [20]
1 | COc1cc2c3c(c1OC)C(=O)C=C3N(S(=O)(=O)c1ccc(C)cc1)CC2 | > 100 µM (inactive) | > 100 µM (inactive) | > 100 µM (inactive) | 77.8 µM (inactive) | > 100 µM (inactive) | > 100 µM (inactive) | > 100 µM (inactive) | > 100 µM (inactive) | 65.8 µM (inactive) | > 100 µM (inactive) | 64.3 µM (inactive) | > 100 µM (inactive) | > 100 µM (inactive) | > 100 µM (inactive) | > 100 µM (inactive) | > 100 µM (inactive) | > 100 µM (inactive) | > 100 µM (inactive) | – | –
2 | Cc1ccc(NC(=O)CCc2nnc(N)o2)cc1 | > 100 µM (inactive) | > 100 µM (inactive) | > 100 µM (inactive) | > 100 µM (inactive) | > 100 µM (inactive) | > 100 µM (inactive) | > 100 µM (inactive) | > 100 µM (inactive) | > 100 µM (inactive) | > 100 µM (inactive) | > 100 µM (inactive) | > 100 µM (inactive) | > 100 µM (inactive) | > 67.3 µM (inactive) | > 100 µM (inactive) | > 100 µM (inactive) | > 100 µM (inactive) | > 100 µM (inactive) | – | –
3 | CCOC(=O)C1=C(O)C(=O)c2cc(OC)ccc2C1=O | > 100 µM (inactive) | > 100 µM (inactive) | 38.5 µM (inactive) | 84.9 µM (inactive) | 55.2 µM (inactive) | 63 µM (inactive) | > 100 µM (inactive) | > 100 µM (inactive) | > 100 µM (inactive) | 38.9 µM (inactive) | > 100 µM (inactive) | > 100 µM (inactive) | 95.5 µM (inactive) | > 100 µM (inactive) | > 100 µM (inactive) | > 100 µM (inactive) | > 100 µM (inactive) | > 100 µM (inactive) | – | –
4 | NC(CCC(=O)NC(CSC(=O)N(O)c1ccccc1)C(=O)NCC(=O)O)C(=O)O (configuration not stated) | > 1000 µM (inactive) | > 1000 µM (inactive) | > 1000 µM (inactive) | > 1000 µM (inactive) | > 1000 µM (inactive) | 918 µM (inactive) | > 1000 µM (inactive) | > 1000 µM (inactive) | > 1000 µM (inactive) | > 1000 µM (inactive) | > 1000 µM (inactive) | > 1000 µM (inactive) | > 1000 µM (inactive) | > 1000 µM (inactive) | > 1000 µM (inactive) | > 1000 µM (inactive) | > 1000 µM (inactive) | > 1000 µM (inactive) | – | –
5 | CCOc1ccc2nc(NC(=O)C(=O)C(C#N)CC(C)(C)C=O)sc2c1 (configuration not stated) | > 100 µM (inactive) | > 100 µM (inactive) | > 100 µM (inactive) | > 100 µM (inactive) | 44.2 µM (inactive) | > 100 µM (inactive) | > 100 µM (inactive) | > 100 µM (inactive) | > 100 µM (inactive) | > 100 µM (inactive) | > 100 µM (inactive) | > 100 µM (inactive) | > 100 µM (inactive) | > 100 µM (inactive) | > 100 µM (inactive) | > 100 µM (inactive) | > 100 µM (inactive) | 26.9 µM (inactive) | – | –
6 | C=C(CN(C)C)C(=O)c1ccc(C)cc1C | 17.2 µM (inactive) | 18.5 µM (inactive) | 15.5 µM (inactive) | 16.3 µM (inactive) | 5.12 µM (inactive) | 12.2 µM (inactive) | 3.38 µM (inactive) | 15.9 µM (inactive) | 9.86 µM (inactive) | 32.7 µM (inactive) | 32.2 µM (inactive) | 11.8 µM (inactive) | 5.61 µM (inactive) | 0.46 µM (active) | 7.66 µM (inactive) | 18 µM (inactive) | 19.9 µM (inactive) | 0.574 µM (active) | 26.1 µM (inactive) | 14.1 µM (inactive)
7 | CC(C)(C)C#COC(=O)c1ccccc1 | > 100 µM (inactive) | > 100 µM (inactive) | > 100 µM (inactive) | > 100 µM (inactive) | > 100 µM (inactive) | > 100 µM (inactive) | > 100 µM (inactive) | > 100 µM (inactive) | > 100 µM (inactive) | > 100 µM (inactive) | > 100 µM (inactive) | > 100 µM (inactive) | > 100 µM (inactive) | > 100 µM (inactive) | > 100 µM (inactive) | > 100 µM (inactive) | > 100 µM (inactive) | > 100 µM (inactive) | – | –
8 | Cc1cc(C)nc(NS(=O)(=O)c2ccc(Nc3c4ccccc4nc4c(C(=O)N5CCN(CCO)CC5)cccc34)cc2)n1 | > 100 µM (inactive) | > 100 µM (inactive) | > 100 µM (inactive) | > 100 µM (inactive) | > 100 µM (inactive) | > 100 µM (inactive) | > 100 µM (inactive) | > 100 µM (inactive) | > 100 µM (inactive) | > 100 µM (inactive) | > 100 µM (inactive) | > 100 µM (inactive) | > 100 µM (inactive) | > 100 µM (inactive) | > 100 µM (inactive) | > 100 µM (inactive) | > 100 µM (inactive) | > 100 µM (inactive) | – | –
9 | CC(C)N(C(=O)C12C3C4C1C1C4(C#N)C3C12C(=O)O)C(C)C (configuration not stated) | > 100 µM (inactive) | > 100 µM (inactive) | > 100 µM (inactive) | > 100 µM (inactive) | > 93.8 µM (inactive) | > 100 µM (inactive) | > 100 µM (inactive) | > 100 µM (inactive) | > 100 µM (inactive) | > 100 µM (inactive) | > 100 µM (inactive) | > 100 µM (inactive) | > 52.8 µM (inactive) | > 45.5 µM (inactive) | > 100 µM (inactive) | > 100 µM (inactive) | > 100 µM (inactive) | > 48.4 µM (inactive) | – | –
10 | CC(=O)OC1C[C@H]2C(OC(=O)c3ccccc3)C3C4(OC(C)=O)COC4C[C@H](OC(C)=O)[C@@]3(C)C(OC(C)=O)[C@H](OC(C)=O)C(=C1C)C2(C)C (some centres not stated) | 24.4 µM (inactive) | 34.1 µM (inactive) | 34.1 µM (inactive) | 33.5 µM (inactive) | 40.9 µM (inactive) | 24.9 µM (inactive) | 42.7 µM (inactive) | 59.4 µM (inactive) | 36.7 µM (inactive) | 24.2 µM (inactive) | 40 µM (inactive) | 51.2 µM (inactive) | 40 µM (inactive) | 16.7 µM (inactive) | 49.3 µM (inactive) | 33.3 µM (inactive) | 59 µM (inactive) | 36.7 µM (inactive) | – | –
11 | O=C1c2ccsc2C(=O)c2sc(CO)cc21 | 0.331 µM (active) | 1.11 µM (active) | 0.243 µM (active) | 0.628 µM (active) | < 0.0176 µM (active) | 0.134 µM (active) | 0.817 µM (active) | 1.79 µM (inactive) | 0.167 µM (active) | 0.0929 µM (active) | 0.184 µM (active) | 0.0386 µM (active) | 0.11 µM (active) | 0.656 µM (active) | 0.219 µM (active) | 0.0929 µM (active) | 0.182 µM (active) | 0.207 µM (active) | 0.0611 µM (active) | 0.126 µM (active)
12 | C/C(=N\NC(=S)N1CCCCCC1)c1ccccn1 | 0.697 µM (active) | 0.00665 µM (active) | 0.565 µM (active) | < 0.0187 µM (active) | 0.0656 µM (active) | 0.543 µM (active) | 0.00244 µM (active) | 0.0258 µM (active) | 0.185 µM (active) | 0.0521 µM (active) | 0.075 µM (active) | 0.548 µM (active) | 0.00207 µM (active) | 0.0021 µM (active) | < 0.001 µM (active) | 0.132 µM (active) | < 0.001 µM (active) | 0.00383 µM (active) | 0.322 µM (active) | 0.011 µM (active)

From ChEMBL document CHEMBL1201862, “PubChem BioAssay data set” (2004)
